The source of these data is US5443986A, “Enzymatic analysis using substrates that yield fluorescent precipitates” (Molecular Probes, Inc., priority 1993, dated 1995).

This experiment addresses alkaline phosphatase (Bos taurus, UniProt P19111). Type of experiment: biochemical. Also noted: mature GPI-type homodimer. The settings on record: 0.1M TRIS pH 10.3, 50 mM NaCl, 10 mM MgCl2, 0.1 mM ZnCl2; double-reciprocal plot. The protocol: As compared with other synthetic substrates, the fluorogenic precipitating substrates described in this invention normally have high enzymatic turnover rates and moderate affinities for the enzymes. Turnover rates of the substrates can be determined as in Example 10 and expressed as micromoles of product per minute per milligram protein (k2, in units of μmol·min^-1 ·mg^-1). The affinity of the substrate is determined by its dissociation constant, KM, in millimolar units. The enzymes can bind to and catalyze conversion of the soluble substrates into detectable reaction products that are apparently less soluble and will precipitate in aqueous solutions. The preferred detectable reaction products are fluorescent precipitates. The precipitation, however, and thus fluorescence, depends on the reaction product concentration or the initial substrate concentration used, as well as the ionization state of the product's phenol group. There are two parameters determining the precipitation, i.e. critical concentration (Mc) and pH dependence (pKa). A method for determination of these parameters is given in Example 11. Table 10 gives the relevant parameters for the enzymatic reaction and precipitation of quinazolinone-based alkaline phosphatase substrates.
4). Kinetic assay of some of the substrates. The specific activity (k2, in a unit of micromole per minute per milligram protein) and Michaelis constant (KM, in a unit of millimole) for hydrolysis of the substrates by the enzyme are listed in Table 10. All of the specific enzymatic reactions are made in the following buffers:
For alkaline phosphatase: 0.1M TRIS pH 10.3 containing 50 mM NaCl, 10 mM MgCl2 and 0.1 mM ZnCl2.
Because the kinetic assay involves variable amounts of precipitate with variable light scattering, measurement in the fluorometer as described above cannot be used here. Instead, a fluorescence plate reader with front-face measurement geometry such as the CytoFluor™ 2300 (Millipore, Bedford, Mass.) is preferred for quantitating the precipitate. The following protocol illustrates the kinetic assay.
4.1 ). In a 96-well plate, pipette 200 μL of a phosphatase substrate in the alkaline phosphatase reaction buffer with a final concentration of 2 to 6 mM, then add 50 μL 1 mg/mL alkaline phosphatase. […] Fluorescence of the precipitate is measured in the CytoFluor with appropriate sensitivity and excitation and emission settings as have been determined with the fluorometer. The fluorescence signal versus the amount of the precipitate is then established for each substrate.
4.2). […] Read the fluorescence of the resulting precipitate after 10 minutes reaction time and calculate the precipitate formation rate per minute by use of the determined fluorescence signal versus the amount of the precipitate. […]

alkaline phosphatase, sequence (P19111 20-506): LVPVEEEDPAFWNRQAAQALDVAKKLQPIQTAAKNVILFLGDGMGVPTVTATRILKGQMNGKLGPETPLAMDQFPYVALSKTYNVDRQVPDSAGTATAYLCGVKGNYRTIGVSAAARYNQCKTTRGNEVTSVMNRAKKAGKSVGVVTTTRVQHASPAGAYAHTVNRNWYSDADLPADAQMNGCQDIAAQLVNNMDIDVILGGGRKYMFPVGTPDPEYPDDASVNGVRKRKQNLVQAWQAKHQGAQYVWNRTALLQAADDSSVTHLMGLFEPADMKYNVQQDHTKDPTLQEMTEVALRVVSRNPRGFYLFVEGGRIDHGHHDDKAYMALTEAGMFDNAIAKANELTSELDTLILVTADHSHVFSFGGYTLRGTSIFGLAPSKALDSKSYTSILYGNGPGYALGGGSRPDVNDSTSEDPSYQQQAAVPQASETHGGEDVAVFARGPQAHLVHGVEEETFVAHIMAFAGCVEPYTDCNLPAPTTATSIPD

As to `O=c1[nH]c(-c2cc(Cl)ccc2OP(=O)(O)O)nc2ccc(Cl)cc12` [8e, Ammonium 2-(5'-chloro-2'-phosphoryloxyphenyl)-6-chloro-4-(3H)-quinazolinone], the “k2 (specific activity, turnover rate)” value came to 618.60 µmol/min/mg.
